# From US20200181104A1, “SSAO INHIBITORS AND USES THEREOF” (METACRINE, INC., priority 2018, published 2020)
# pIC50: −log10 of the molar value. Counter-ions that a name gives are not always drawn.
# Target: T1, Recombinant Human SSAO/VAP-1/AOC3 (Homo sapiens, UniProt Q16853)
# T1 construct: purchased R&D systems 3957-AO
# T1 sequence (Q16853 1-763): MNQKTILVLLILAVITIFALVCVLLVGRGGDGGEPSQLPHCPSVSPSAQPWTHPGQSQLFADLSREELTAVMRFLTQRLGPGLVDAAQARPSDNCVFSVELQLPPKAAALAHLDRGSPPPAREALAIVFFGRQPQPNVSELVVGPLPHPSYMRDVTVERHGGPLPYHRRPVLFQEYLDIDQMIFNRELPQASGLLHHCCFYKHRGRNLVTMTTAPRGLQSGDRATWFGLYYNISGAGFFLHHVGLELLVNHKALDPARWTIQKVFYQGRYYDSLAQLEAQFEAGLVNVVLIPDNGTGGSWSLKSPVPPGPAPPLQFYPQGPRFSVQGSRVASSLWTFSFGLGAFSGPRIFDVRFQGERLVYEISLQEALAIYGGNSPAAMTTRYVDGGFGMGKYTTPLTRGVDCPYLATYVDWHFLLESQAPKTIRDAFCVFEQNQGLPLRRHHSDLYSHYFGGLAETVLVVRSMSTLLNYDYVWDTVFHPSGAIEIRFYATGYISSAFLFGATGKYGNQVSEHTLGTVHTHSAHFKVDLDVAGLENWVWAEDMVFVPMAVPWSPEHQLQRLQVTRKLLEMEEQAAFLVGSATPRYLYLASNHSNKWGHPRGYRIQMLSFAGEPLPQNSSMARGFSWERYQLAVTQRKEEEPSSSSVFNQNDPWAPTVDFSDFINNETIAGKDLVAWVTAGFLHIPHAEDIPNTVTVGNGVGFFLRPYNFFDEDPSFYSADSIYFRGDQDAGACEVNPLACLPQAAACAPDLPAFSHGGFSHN
# Assay: Human Semicarbazide-Sensitive Amine Oxidase (SSAO) Assay
# Format: biochemical
# Details: recombinant enzyme, 30 minutes preincubation at 37° C., benzylamine substrate, Amplex Ultra Red/HRP fluorescence
# Summary of the method: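 Recombinant human SSAO/VAP-1 (2.5 μg/ml working stock in 50 mM HEPES) preincubated with compound 30 min at 37 °C over a 6-10 point CRC. Benzylamine substrate starts the reaction. H2O2 read kinetically over 30-120 min via Amplex Ultra Red/HRP fluorescence (ex 544/em 590 nm) to derive IC50.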
row,pIC50,Structure (SMILES)
1,7.00 to 8.00,"NC/C(=C\F)CNc1ccc(C23CCC(C(=O)NC4CCOCC4)(CC2)CC3)cc1 [Compound 9, (E)-4-(4-((2-(Aminomethyl)-3-fluoroallyl)amino)phenyl)-N-(tetrahydro-2H-pyran-4-yl)bicyclo[2.2.2]octane-1-carboxamide Hydrochloride]"
2,≥ 8.00,"NC/C(=C\F)COc1ccc(C23CCCC(C(=O)NC4CCOCC4)(CC2)CC3)cc1 [Compound 10.01, (E)-5-(4-((2-(Aminomethyl)-3-fluoroallyl)oxy)phenyl)-N-(tetrahydro-2H-pyran-4-yl)bicyclo[3.2.2]nonane-1-carboxamide Hydrochloride]"
3,≥ 8.00,"Cc1nnc(C23CCC(c4ccc(OC/C(=C/F)CN)cc4)(CC2)CC3)o1 [Compound 11, (2E)-3-fluoro-2-({4-[4-(5-methyl(1,3,4-oxadiazol-2-yl))bicyclo[2.2.2]octyl]phenoxy}methyl)prop-2-enylamine]"
4,≥ 8.00,"NC/C(=C\F)COc1ccc(C23CCC(c4nnc(C5CC5)o4)(CC2)CC3)cc1 [Compound 11.01, (E)-2-((4-(4-(5-cyclopropyl-1,3,4-oxadiazol-2-yl)bicyclo[2.2.2]octan-1-yl)phenoxy)methyl)-3-fluoroprop-2-en-1-amine]"
5,≥ 8.00,"NC/C(=C\F)COc1ccc(C23CCC(c4nnc(C5CCOCC5)o4)(CC2)CC3)cc1 [Compound 11.02, (E)-3-fluoro-2-((4-(4-(5-(tetrahydro-2H-pyran-4-yl)-1,3,4-oxadiazol-2-yl)bicyclo[2.2.2]octan-1-yl)phenoxy)methyl)prop-2-en-1-amine]"

row,Structure (SMILES),pIC50
1,"CNC(=O)C12CCCC(c3ccc(OC/C(=C/F)CN)cc3)(CC1)CC2 [Compound 10, (E)-5-(4-((2-(Aminomethyl)-3-fluoroallyl)oxy)phenyl)-N-methylbicyclo[3.2.2]nonane-1-carboxamide Hydrochloride]",≥ 8.00
